Laboratory results: PubChem BioAssay (NCI)
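Dose response: 5 concentrations. Exposure: 48 h. Format: 96-well plates. Endpoint: linear interpolation; highest concentration if not reached. GI50 marks 50% less growth. TGI marks complete inhibition of growth.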

Tests used:
Test in all cases: DTP human tumour cell line panel, 48 h
[1] = test system: SN12C renal
[2] = test system: HT29 colon
[3] = test system: NCI-H226 lung
[4] = test system: SF-539 CNS
[5] = test system: MDA-MB-435
[6] = test system: SK-MEL-2 melanoma
[7] = test system: MCF7 breast
[8] = test system: LOX IMVI melanoma
[9] = test system: HOP-62 NSCLC
[10] = test system: 786-0 renal

Structure (SMILES) | GI50 [1] [µM] | TGI [1] [µM] | GI50 [2] [µM] | TGI [2] [µM] | GI50 [3] [µM] | TGI [3] [µM] | GI50 [4] [µM] | TGI [4] [µM] | GI50 [5] [µM] | TGI [5] [µM] | GI50 [6] [µM] | TGI [6] [µM] | GI50 [7] [µM] | TGI [7] [µM] | GI50 [8] [µM] | TGI [8] [µM] | GI50 [9] [µM] | TGI [9] [µM] | GI50 [10] [µM] | TGI [10] [µM]
COc1cc(/C=C/c2cc(O)c(C(C)=O)c(O)c2)cc2c1O[C@]1(C)CC[C@@H](O)C(C)(C)[C@H]1C2 | 9.07 | 72.8 | 4.05 | > 100 | 16.8 | 54.2 | 1.32 | 6.2 | 7.38 | 57.2 | 7.87 | 51.6 | 3.31 | 22.2 | 2.85 | 13.3 | 4.56 | 48.4 | 2.91 | 28.9
COc1ccc(-c2nnc(COc3ccc(NC(=O)Nc4cc(C(F)(F)F)cc(C(F)(F)F)c4)cc3F)o2)cc1 | 1.93 | 5.39 | 2.21 | 4.74 | 2.63 | 9.69 | 2.09 | 5.28 | 2.11 | 5 | 2.66 | 5.82 | 2 | 5.04 | 1.95 | 4.42 | 2.69 | 7.12 | 2.2 | 4.7
CCOC(=O)c1cc2nc3ccccc3c(=O)n2c2ccccc12 |  | > 10 |  | > 10 |  | > 10 |  | > 10 |  | > 10 |  | > 10 |  | > 10 |  | > 10 |  | > 10 |  | > 10
Cc1cc(O)c(/C=N/C(=S)NCc2ccccc2)c(=O)o1 |  | > 100 |  | > 100 |  | > 100 |  | > 100 |  | > 100 |  | > 100 |  | > 100 |  | > 100 |  | > 100 |  | > 100
COc1cc(NCc2ccc3oc(=O)c(-c4ccccc4)nc3c2)cc(OC)c1OC |  | > 10 |  | > 10 |  | > 10 |  | > 10 |  | > 10 |  | > 10 |  | > 10 |  | > 10 |  | > 10 |  | > 10
O=C(/C=C/c1ccncc1)c1cc(Cl)ccc1O | 23.4 | 68.4 | 14.1 | 29.7 | 22.7 | 58 | 18 | 41.9 | 17.1 | 41 | 19.7 | 37.8 | 13.1 | 27.7 | 13.2 | 29.2 | 18.3 | 43.8 | 17.9 | 34.1
CC(C)C(C)/C=C\C(C)C1CCC2C3=CC=C4CC(O)CCC4(C)C3CCC21C (stereo not given) |  | > 60.2 |  | > 55.8 |  | > 65.3 |  | > 64 |  | > 83.5 |  | > 100 |  | > 100 |  | > 57.2 |  | > 79.5 |  | > 60.7
N#CC(C#N)=CNC(N)=S |  | > 100 |  | > 100 |  | > 100 |  | > 100 |  | > 100 |  | > 100 |  | > 100 |  | > 100 |  | > 100 |  | > 100
COC(=O)C1=C(C)NC(C)=C(C(=O)OCCCN2CCC(c3ccccc3)(c3ccccc3)CC2)C1c1cccc([N+](=O)[O-])c1 (stereo not given) |  | 2.99 |  | 2.71 |  | 18.2 |  | 3.27 |  | 3.02 |  | 4.74 |  | 3.74 |  | 3.2 |  | 9.16 |  | 2.99
C[C@@H]1CCC2[C@@H](C)[C@@H](OCC(CO[C@H]3OC4O[C@@]5(C)CC[C@H]6[C@H](C)CCC([C@H]3C)[C@@]46OO5)OC(=O)CCC(=O)O)OC3O[C@@]4(C)CC[C@@H]1[C@]32OO4 (stereo not given in full) | 0.374 | 23.4 | < 0.01 | > 34.9 | 0.933 | 40 | 2.26 | 28.8 | < 0.0115 | 13 | 4.22 | > 51.6 | < 0.01 | 16.7 | < 0.01 | > 100 | 0.99 | 22.1 | < 0.0151 | 17.3
OC(c1nc2ccccc2[nH]1)C(O)C(O)C(O)c1nc2ccccc2[nH]1 (stereo not given) |  | > 100 |  | > 100 |  | > 100 |  | > 100 |  | > 100 |  | > 100 |  | > 100 |  | > 100 |  | > 100 |  | > 100
COc1ccc(/C=C(/C#N)n2nnc3cccc(F)c32)cc1 | 1.93 | > 100 | 0.41 | > 100 | 2.87 | 53.8 | 1.62 | 4.06 | 0.18 | 0.471 | 0.653 | 21.9 | 0.524 | > 100 | 0.78 | > 100 | 3.25 | > 100 | 2.42 | > 100
Nc1ncnc2n[nH]c(Nc3ccc(F)cc3)c12 | 35.6 | > 100 | 25.3 | > 100 | 51 | > 100 | 23.6 | > 100 | 19.7 | 49.6 | 14 | > 100 | 27.7 | 89.3 | 10.1 | 34 | 64.8 | > 100 | 19.3 | > 100
